Assays:
Type in all cases: biochemical
monomeric human Aurora-B = monomeric human Aurora-B (Homo sapiens, UniProt Q96GD4); assay: kinase assay on monomeric human Aurora-B; conditions: assay conditions which allow similar signal/noise ratios
[1] = target: T1, wt-Aurora-B^60-361/INCENP^790-847 (Xenopus laevis, UniProt Q6DE08); assay: radioactive kinase filterbinding assay, IC50 determination; conditions: wt enzyme complex at 5 nM; 100 µM ATP, 10 µM substrate peptide; spread printed ± 2 nM
T1 construct: GST (N, cleaved yes); made in house; host or cells: E. coli BL21(DE3) with pUBS520 helper plasmid
T1 sequence (Q6DE08 60-361): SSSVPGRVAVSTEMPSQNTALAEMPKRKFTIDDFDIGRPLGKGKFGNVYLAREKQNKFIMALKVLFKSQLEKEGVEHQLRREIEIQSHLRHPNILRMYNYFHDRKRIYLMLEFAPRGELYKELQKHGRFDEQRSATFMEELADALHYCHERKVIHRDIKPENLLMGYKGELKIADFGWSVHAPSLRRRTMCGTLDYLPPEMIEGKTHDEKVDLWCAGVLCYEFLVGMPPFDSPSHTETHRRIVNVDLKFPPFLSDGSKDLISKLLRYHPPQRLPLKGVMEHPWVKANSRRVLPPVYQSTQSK
T1 sequence (O13024 790-847 partner limits assumed): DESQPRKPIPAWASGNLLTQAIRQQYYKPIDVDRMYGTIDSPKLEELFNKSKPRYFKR
Method: (§1) The ATP-KM value for the G96V mutant (83 µM) is similar to the wt enzyme (61 µM). The kinase assays are run in the presence of 100 µM ATP using 10 µM of a substrate peptide (see Materials and Methods).
(§2) Hesperadin is a potent inhibitor of human Aurora-B (Hauf, 2003). To determine whether Hesperadin inhibits also xAurora-B /INCENP complexes, a kinase filterbinding assay is employed for IC50-determinations. Both, the G96V and the wt enzyme complex are used at 5 nM concentration in the assays.
(§3) Purified xAurora-B/INCENP is snap frozen and stored for further use at -80°C in desalting buffer (50 mM Tris/Cl pH 8.0, 150mM NaCl, 0.1mM EDTA, 0.03% Brij-35, 10% glycerol, 1mM DTT). xAurora-B/INCENP is incubated in the presence or absence of a test compound dilutions in DMSO prior to addition of substrate peptide and P33-γ-ATP. Samples without a test compound or without substrate peptide are used as high or low-controls, respectively. IC50 values are determined using Graph Pad Prism software.
(§4) For the filter-binding kinase assay (reaction volume 50 ul /well), 96-well PP-Microplates (Greiner, 655 201) are used. To 10µl compound in 25% DMSO are added 30µl PROTEIN-MIX (166 µM ATP,1x kinase buffer [50mM Tris/Cl pH7.5,25mM MgC12, 25mM NaCl], 10-20 ng xAurora-B/INCENP) followed by an 15 min incubation at room temperature (agitating, 350rpm). […]

[2] = target: T2, G96V-Aurora-B^60-361/INCENP^790-847 (Xenopus laevis, UniProt Q6DE08, G96V); assay: as above; conditions: G96V enzyme complex at 5 nM; 100 µM ATP, 10 µM substrate peptide; spread printed ±13 nM
T2 construct: GST (N, cleaved yes); made in house; host or cells: E. coli BL21(DE3) with pUBS520 helper plasmid
T2 sequence (Q6DE08 60-361 G96V): as the sequence (Q6DE08 60-361) above, with G37V counted along it
T2 sequence (O13024 790-847 partner limits assumed): as the sequence (O13024 790-847 partner limits assumed) above
Method: as §1, §2, §3, §4

Chain of monomeric human Aurora-B (Q96GD4 whole entry): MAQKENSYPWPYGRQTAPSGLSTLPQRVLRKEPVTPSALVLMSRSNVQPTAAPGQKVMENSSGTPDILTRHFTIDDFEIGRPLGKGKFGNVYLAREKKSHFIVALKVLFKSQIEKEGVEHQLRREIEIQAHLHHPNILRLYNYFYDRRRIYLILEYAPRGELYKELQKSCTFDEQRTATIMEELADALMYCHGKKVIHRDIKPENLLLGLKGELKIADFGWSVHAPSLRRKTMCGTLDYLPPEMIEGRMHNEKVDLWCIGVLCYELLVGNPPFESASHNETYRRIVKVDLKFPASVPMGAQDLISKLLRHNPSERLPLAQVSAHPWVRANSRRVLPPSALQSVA

`CCS(=O)(=O)Nc1ccc2c(c1)/C(=C(/Nc1ccc(CN3CCCCC3)cc1)c1ccccc1)C(=O)N2` [Hesperadin] showed an IC50 (monomeric human Aurora-B) of 44 nM, an IC50 [1] of 7 nM and an IC50 [2] of 25 nM.
